pKd: −log10 of the molar value. Several values for one entry are separate records, joined by “and”; a condition that tells them apart may be missing. Equal entries are not always repeated. Where two headings read alike, the source gives them in different places.
How the values were obtained:
Aqueous solubility = assay type: physicochemical; settings: in words, relative to previous analogues
FFA1-Nluc [1] = biological target: T1, FFA1-Nluc (Homo sapiens, UniProt O14842); assay: NanoBRET binding (saturation, kinetics) at C terminal Nluc tagged FFA1; parameters: expressed in transfected cells
Protocol: Nluc-FFA1 or FFA1-Nluc Flp-In T-REx 293 cells were plated at 50,000 cells per well in poly-D-lysine coated white 96-well plates. Cells were cultured for 24 h in the plate before medium was replaced with medium containing 100 ng/mL of doxycycline to induce receptor expression. After culturing for a further 24 h, medium was removed, cells were washed with HBSS and incubated in HBSS for 30 min. To start the assay, NanoGlo substrate (Promega, N1110) was added to the cells at a 1:800 final dilution and incubated for 10 min at 37 °C. For endpoint assays, including both saturation and competition binding, test ligands were then added, including both fluorescent and unlabelled competing ligands as indicated, and plates incubated for a further 5 min at 37 °C. NanoBRET was then quantified in a CLARIOstar microplate reader (BMG Labtech) by measuring luminescent emission with the monochrometer set for the Nluc donor at 450–60 nm, and acceptor luminescent emission 540–60 nm (NBD), 600–80 nm (Cy3.5) or 690–100 nm (SulfoCy5), depending on which fluorophore was being tested. The acceptor/donor BRET ratio was then taken as a measure of fluorophore binding. For kinetic on then off NanoBRET experiments plates were washed the same way and substrate was added to the same concentration. However, 10 min after substrate was added plates were inserted into the CLARIOstar microplate reader set to 25 °C to take repeated measurements of luminescent emission for both the donor and the acceptor fluorophore being used. After 5 min of background measurements, the indicated concentration of fluorescent ligand was added using the plate reader injector and luminescent emission was monitored for ~10 min before the reader was paused to manually add a high concentration of appropriate competing ligand to initiate dissociation. The plate was returned to the reader and luminescence measurements were continued for a further 30 min to monitor dissociation of the fluorescent ligand. For kinetic experiments using multiple concentrations of fluorescent ligand, cells were placed in the plate reader immediately after the addition of Nano-Glo substrate and luminescent measurements were taken. After 5 min, the reader was paused to add the indicated concentrations of fluorescent ligand, before measurements were continued. To set non-specific binding for kinetic experiments, the indicated competing ligand was added 5 min before the addition of the fluorescent ligand.

FFA1-Nluc [2] = biological target: T1, FFA1-Nluc; assay: Ca2+ mobilisation antagonism of FFA1 agonists (TUG-905, T360) in Flp-In T-REx 293 cells expressing FFA1-Nluc; assay type: cell-based; parameters: expressed in transfected cells
Protocol: Nluc-FFA1, FFA1-Nluc or untagged FFA1 Flp-In T-REx 293 cells were plated at 50,000 cells per well in poly-D-lysine coated black clear bottom 96-well plates. Cells were then cultured for 24 h until reaching confluency before culture medium was replaced with medium containing 100 ng/mL of doxycycline to induce receptor expression. Cells were cultured for a further 24 h before the assay. On the day of the assay culture medium was removed and replaced with medium containing 3 μM Fura2-AM Ca^2+ dye. […] Fura2 fluorescent emission at 520 nm following excitation with each of 340 and 380 nm was measured in regular intervals both before and after adding test compounds for a total of 90 s per well. Calcium responses were determined by taking the peak 340/380 ratio after first subtracting the ratios obtained prior to addition of test compound. […]
Ca2+ mobilization responses were measured in
Flp-In T-REx 293 cells expressing FFA1-Nluc. Ca2+ responses to increasing concentrations
pre-treated with 10 μM PPTQ. The mode of antagonism for PPTQ was assessed by
N=3 (A-D, F, H) or N=4 (E, G) independent experiments. S ource data are provided as a […]

[3] = FFA1-Nluc, 95% confidence interval in parentheses, read-out: Kd, saturation BRET binding

T1 sequence (O14842 whole entry): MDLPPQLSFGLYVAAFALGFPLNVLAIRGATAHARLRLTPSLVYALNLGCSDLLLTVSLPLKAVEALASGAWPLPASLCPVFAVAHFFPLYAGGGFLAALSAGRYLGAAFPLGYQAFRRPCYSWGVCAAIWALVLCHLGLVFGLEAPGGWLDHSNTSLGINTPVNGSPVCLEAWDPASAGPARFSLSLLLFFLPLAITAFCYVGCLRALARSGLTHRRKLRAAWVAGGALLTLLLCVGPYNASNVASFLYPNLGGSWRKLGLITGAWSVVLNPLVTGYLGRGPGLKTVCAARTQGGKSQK

SMILES: COc1ccc(C(=O)N(CC(C)(C)CNc2ccc([N+](=O)[O-])c3nonc23)c2cccc(C)n2)c(N2CCC(COc3cccc(C(CC(=O)O)C4CC4)c3)CC2)c1.O=C(O)C(F)(F)F (centres unmarked) [TUG-2597]
- aqueous solubility (Aqueous solubility): improved aqueous solubility
- Specific BRET (FFA1-Nluc [1]; FFA1-Nluc (Fig 1E), percentage of the maximal signal, [TUG-2597] 550 nM): 49.872% and 58.619% and 50.406% and 58.181% and 46.189%
- pKd (FFA1-Nluc [1]; [3]): 6.42
- Specific BRET (540/450) Ratio (FFA1-Nluc [1]; FFA1-Nluc, [TUG-2597] 550 nM): 0.0328 and 0.0282
- kOff Nano-BRET Allosterism, FFA1-Nluc (FFA1-Nluc [1]; TUG-2597 (1 μM) in the presence of TUG-905 (30μM), 95% CI in parentheses): 0.24 (0.23-0.25) min-1
- kOff Nano-BRET Single Concentration (FFA1-Nluc [1]; based on the value calculated in Supplementary Table 4): 0.00633 s⁻¹
- kOn Nano-BRET Single Concentration (FFA1-Nluc [1]; no pre-treatment, NBD/Nluc (Sup. Fig. 10A)): 23333.33 M⁻¹ s⁻¹
- pKd (FFA1-Nluc [1]; no pre-treatment, read-out: Kd Nano-BRET Single Concentration (kinetic)): 6.57

SMILES: COc1ccc(CCCC(C)(C)C)c(N2CCC(COc3cccc(C(CC(=O)O)C4CC4)c3)CC2)c1.O=C(O)C(F)(F)F (centres unmarked) [T360]
- Ca2% Response (%) (FFA1-Nluc [2]; log[T360] -5, Veh (no antagonist), Sup Figure 6B/6D): 93.75% and 106.25% and 103.05% and 96.95%
- Ca2% Response (%) (FFA1-Nluc [2]; log[T360] -5, with 1 μM GW1100): 103.36% and 82.58% and 106.13% and 87.84% and 101.04% and 85.87%
- Ca2% Response (%) (FFA1-Nluc [2]; log[T360] -6, 10 μΜ (antagonist not given), Sup Figure 6F): 76.18% and 67.98% and 49.56% and 55.62% and 87.66% and 92.64%
- Ca2% Response (%) (FFA1-Nluc [2]; log[T360] -6, Veh (no antagonist), Sup Figure 6B/6D): 104.34% and 101.89% and 110.55% and 104.28% and 99.18% and 100.82%
- Ca2% Response (%) (FFA1-Nluc [2]; log[T360] -6, Veh (no antagonist), Sup Figure 6F): 99.06% and 95.34% and 97.85% and 90.61% and 102.43% and 99.32%
- Ca2% Response (%) (FFA1-Nluc [2]; log[T360] -6, column head 1.0 μM (antagonist not given), Sup Figure 6F): 76.88% and 59.19% and 87.71% and 76.79% and 92.25% and 102.12%
- Ca2% Response (%) (FFA1-Nluc [2]; log[T360] -6, with 1 μM GW1100): 91.67% and 83.66% and 88.97% and 81.49% and 113.97% and 109.62%
- Ca2% Response (%) (FFA1-Nluc [2]; log[T360] -6.5, Veh (no antagonist), Sup Figure 6F): 94.10% and 96.59% and 92.66% and 91.86% and 93.32% and 89.24%
- Ca2% Response (%) (FFA1-Nluc [2]; log[T360] -6.5, column head 1.0 μM (antagonist not given), Sup Figure 6F): 60.34% and 48.04% and 59.96% and 55.53% and 61.67% and 49.63%
- Ca2% Response (%) (FFA1-Nluc [2]; log[T360] -7, Veh (no antagonist), Sup Figure 6B/6D): 82.83% and 93.76% and 57.76% and 86.64% and 99.93%
- Ca2% Response (%) (FFA1-Nluc [2]; log[T360] -7, Veh (no antagonist), Sup Figure 6F): 93.07% and 80.87% and 91.43% and 68.96% and 59.63% and 63.91%
- Ca2% Response (%) (FFA1-Nluc [2]; log[T360] -7, column head 1.0 μM (antagonist not given), Sup Figure 6F): 3.96% and 7.11% and 12.73% and 6.84% and 9.24% and 5.08%
- Ca2% Response (%) (FFA1-Nluc [2]; log[T360] -8, 10 μΜ (antagonist not given), Sup Figure 6F): 1.71% and -1.05% and -0.90%
- Ca2% Response (%) (FFA1-Nluc [2]; log[T360] -8, column head 1.0 μM (antagonist not given), Sup Figure 6F): -0.81% and -3.31% and 3.71% and 5.53%
- Ca2% Response (%) (FFA1-Nluc [2]; log[T360] -9, Veh (no antagonist), Sup Figure 6B/6D): 2.38% and -2.45% and 0.48% and 0.09% and -1.34% and 1.34%
- Ca2% Response (%) (FFA1-Nluc [2]; log[T360] -11, Veh (no antagonist), Sup Figure 6B/6D): -3.34% and -2.39% and -1.53% and 0.46% and 1.72% and -0.55%

SMILES: Cc1cc(OCCCNC(=O)CCCN2\C(=C/C=C/C=C/C3=[N+](C)c4ccc(S(=O)(=O)[O-])cc4C3(C)C)C(C)(C)c3ccccc32)ccc1-c1cccc(COc2ccc(CCC(=O)O)c(F)c2)c1 [TUG-2591]
- pKd (FFA1-Nluc [1]; [3]): 7.64
- BMax, saturation BRET binding (FFA1-Nluc [1]; FFA1-Nluc, specific BRET, 95% confidence interval in parentheses): 0.035 (0.032−0.038)

From article PMC12254266, “Multicolored sequential resonance energy transfer for detection of simultaneous ligand binding at G protein-coupled receptors” (Nature Communications, 2025)
